Measured values taken from patent US20210187077A1, “GLP-1 Agonist Conjugates for Sustained Glycemic Control” (IDAHO STATE UNIVERSITY, priority 2019, published 2021).

Assay: hydroxyapatite (HA) binding in vitro study (bone mineral affinity)
Description: To evaluate the bone mineral affinity of the GLP-1 conjugate described in Example 1, hydroxyapatite (HA) binding in vitro studies were conducted. Briefly, 10 μg of GLP-1 or equivalent amount of GLP-1 conjugate was mixed with 5 mg of HA powder in 500 μL of the binding buffer with various concentrations (double-distilled water (D.D.), 10 mM PBS [pH 7.4], 50 mM PBS [pH 7.4], acetate buffer [pH 4]) . Similarly, tubes containing an equivalent amount of GLP-1 or GLP-1 conjugate in corresponding buffers without HA were used as a negative control. Mixtures were shaken gently at room temperature for 1 hour and then were centrifuged at 10,000 g for 5 minutes. The supernatant was separated and assayed for unbound drug, using a fluorescence spectrometer (λEx 215 nm, λEm 305 nm). The percentage of HA binding was calculated as:
(Intensity of control−the intensity of supernatants)/Intensity of control×100%
Each experiment was measured in triplicate.

effect of pH and phosphate ion concentration on HA binding capacity (acidic pH (Acetate buffer pH 4 vs PBS pH 7.4) and lower buffer concentration (10 mM vs 50 mM)): higher binding
Substance: H-HAE GTF TSD VSS YLE GQA A-K(Mal-PEGn-BP)-E FIA WLV KGR —NH2 [GLP-1 conjugate]
binding capacity to HA compared with plain GLP-1 peptide (various medium (D.D. water, 10 mM PBS pH 7.4, 50 mM PBS pH 7.4, acetate buffer pH 4), 5 mg HA, 1 hour, room temperature, p<0.01): significantly different binding capacity to HA
